Laboratory results published in ChEMBL document CHEMBL1201862, “PubChem BioAssay data set” (2004).
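Five concentrations, 48 hours, 96-well plates. GI50 is the concentration that inhibits growth by half.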 Active and inactive are the calls of the source. Cut-off read from the data, not from the text of the source: active = GI50 up to about 1.1 µM and inactive = higher.

How the values were obtained:
Assay in all cases: NCI tumour cell line growth inhibition, 48 h
786-0 = system: 786-0
A549 = system: A549
ACHN = system: ACHN
BT-549 = system: BT-549
CAKI-1 = system: CAKI-1
CCRF-CEM = system: CCRF-CEM
COLO 205 = system: COLO 205
DU-145 = system: DU-145
EKVX = system: EKVX
HCC 2998 = system: HCC 2998
HCT-116 = system: HCT-116
HCT-15 = system: HCT-15
HL-60 = system: HL-60
HOP-62 = system: HOP-62
HOP-92 = system: HOP-92
HT-29 = system: HT-29
Hs-578T = system: Hs-578T
IGROV-1 = system: IGROV-1
K562 = system: K562
KM12 = system: KM12
LOX IMVI = system: LOX IMVI
M14 = system: M14
MCF7 = system: MCF7
MDA-MB-231 = system: MDA-MB-231
MDA-MB-435 = system: MDA-MB-435
MDA-N = system: MDA-N
MOLT-4 = system: MOLT-4
NCI-H226 = system: NCI-H226
NCI-H23 = system: NCI-H23
NCI-H460 = system: NCI-H460
NCI/ADR-RES = system: NCI/ADR-RES
OVCAR-3 = system: OVCAR-3
OVCAR-4 = system: OVCAR-4
OVCAR-5 = system: OVCAR-5
OVCAR-8 = system: OVCAR-8
PC-3 = system: PC-3
RPMI-8226 = system: RPMI-8226
RXF 393 = system: RXF 393
SF-268 = system: SF-268
SF-295 = system: SF-295
SF-539 = system: SF-539
SK-MEL-28 = system: SK-MEL-28
SK-MEL-2 = system: SK-MEL-2
SK-OV-3 = system: SK-OV-3
SN12C = system: SN12C
SNB-19 = system: SNB-19
SNB-75 = system: SNB-75
SR = system: SR
SW-620 = system: SW-620
T47D = system: T47D
TK-10 = system: TK-10
U-251 = system: U-251
UACC-257 = system: UACC-257
UACC-62 = system: UACC-62
UO-31 = system: UO-31

Measured: GI50

NC(=O)NCCCC(NC(=O)OCCCCn1ccc(=O)[nH]c1=O)C(=O)O (stereo not given)
inactive: 786-0 > 100 µM | A549 > 100 µM | ACHN > 100 µM | BT-549 > 100 µM | CAKI-1 > 100 µM | CCRF-CEM > 100 µM | COLO 205 > 100 µM | DU-145 > 100 µM | EKVX > 100 µM | HCC 2998 > 100 µM | HCT-116 > 100 µM | HL-60 > 100 µM | HOP-62 > 100 µM | HOP-92 > 100 µM | HT-29 > 100 µM | Hs-578T > 100 µM | IGROV-1 > 100 µM | K562 > 100 µM | KM12 > 100 µM | LOX IMVI > 100 µM | M14 > 100 µM | MCF7 > 100 µM | MDA-MB-231 > 100 µM | MDA-MB-435 > 100 µM | MDA-N > 100 µM | MOLT-4 > 100 µM | NCI-H226 > 100 µM | NCI-H23 > 100 µM | NCI-H460 > 100 µM | NCI/ADR-RES > 100 µM | OVCAR-3 > 100 µM | OVCAR-4 > 100 µM | OVCAR-5 > 100 µM | OVCAR-8 > 100 µM | PC-3 > 100 µM | RPMI-8226 > 100 µM | RXF 393 > 100 µM | SF-268 > 100 µM | SF-295 > 100 µM | SF-539 > 100 µM | SK-MEL-28 > 100 µM | SK-MEL-2 > 100 µM | SK-OV-3 > 100 µM | SN12C > 100 µM | SNB-19 > 100 µM | SNB-75 > 100 µM | SR > 100 µM | SW-620 > 100 µM | T47D > 100 µM | TK-10 > 100 µM | U-251 > 100 µM | UACC-257 > 100 µM | UACC-62 > 100 µM | UO-31 > 100 µM
> 100 µM: HCT-15
